Source: patent publication US11415571B2, “Large scale organoid analysis” (Tempus Labs, Inc., priority 2019, dated 2022)
Counter-ions that a name gives are not always drawn.

Columns and labels:
[1] = tested on: first lung cancer tumor organoid line; test: high throughput tumor organoid drug screen, per-organoid viability histogram; conditions: 10,000 nM dose; for viability at 10 µM: Homo sapiens, read-out: mean viability for all organoids in the plot, caspase 3/7 readout
Method: (§1) TOs were dissociated as described above and resuspended in a 30:70% mix of GFR Matrigel:growth media at a concentration of 100 cells/μl. The solution was added to 384-well assay plates (Corning) at 20 μl per well for a final concentration of 2,000 cells per well. Assay plates were covered with a Breathe-Easy sealing membrane (Sigma Aldrich) to prevent evaporation. TOs were grown for 72 hours before drug addition. Drugs were prepared in growth media with 2.5 μM Caspase-3/7 Green Apoptosis Assay Reagent (Essen Bioscience). Serial dilutions of each molecule were prepared in 384-well polystyrene plates (Nunc). Diluted drug was added to the assay plate using an Integra Viaflo pipette (Integra) mounted on an Integra Assist Plus Pipetting Robot (Integra). Assay plates were again covered with a Breathe-Easy sealing membrane and TOs were exposed to drugs for another 72 hours before imaging.
(§2) Prior to imaging, TOs were incubated with 4 μM Hoechst 33342 (Fisher Scientific) and 300 nM TO-PRO-3 Iodide (642/661) (Invitrogen) for 1.5-2 hours. Assay plates were imaged using an ImageXpress Micro Confocal (Molecular Devices) at 10× magnification so that ˜100-200 TOs were imaged per well. Images were acquired as 4×15 μm Z-stacks and the 2D projections were analyzed to assess cell viability. Confocal images were analyzed using the MetaXpress software (Molecular Devices) custom module editor feature to design an analysis module that identified TOs by clusters of Hoechst 33342 staining, individual cells by Hoechst 33342 staining, and dead/dying cells by either TO-PRO-3 or Caspase-3/7 staining. The result of this analysis module is a spreadsheet detailing the number of live and dead cells for every individual organoid.
(§3) The percentage of viable cells per organoid was calculated based on the image analysis described above. Organoids with fewer than three cells and larger than the top one percent by size were excluded from analysis. The mean viability for all organoids at a given drug concentration was used in dose-response curves to calculate AUC. AUC was calculated using the computeAUC function using settings for “actual” AUC of the R Package PharmacoGx (v1.17.1). Heatmaps of AUC values were generated using the Pheatmap package (v1.0.12) in R. Scatterplots of AUC values were generated using the ggplot2 package (v3.3.0) in R.
(§4) In this example, data for each therapy is presented as a histogram. […] Viability was determined by the systems and methods disclosed above.
(§5) Each tumor organoid line in these examples was cultured individually in wells of a tissue culture plate, as described above.
In this example, tissue culture wells containing a first lung cancer tumor organoid line were each exposed to one of the therapies listed above.

[2] = tested on: second lung cancer tumor organoid line; test: as above; conditions: for viability at 10 µM: Homo sapiens, read-out: mean viability for all organoids in the plot
Method: as §1, §2, §3, §4, §5
In this example, tissue culture wells containing a second lung cancer tumor organoid line were each exposed to one of the therapies listed above.

[3] = tested on: colon cancer tumor organoid line; test: as above; format: cell-based, human; conditions: caspase 3/7 readout, 10,000 nM dose; for viability at 10 µM: Homo sapiens, read-out: mean viability for all organoids in the plot
Method: as §1, §2, §3, §4, §5
In this example, tissue culture wells containing a colon cancer tumor organoid line were each exposed to one of the therapies listed above.

[4] = tested on: head and neck cancer tumor organoid line; test: as above; conditions: for viability at 10 µM: Homo sapiens, read-out: mean viability for all organoids in the plot; for organoids of the line that are resistant to the drug / organoids with 0% viability (susceptible to the drug) / organoids with 100% viability (resistant to the drug): caspase 3/7 readout, 10,000 nM dose
Method: as §1, §2, §3, §4, §5
In this example, tissue culture wells containing a head and neck cancer tumor organoid line were each exposed to one of the therapies listed above.

[5] = tested on: second endometrial cancer tumor organoid line; test: as above; conditions: for viability at 10 µM: Homo sapiens, read-out: mean viability for all organoids in the plot; for organoids of the line that are resistant to the drug / organoids with 0% viability (susceptible to the drug) / organoids with 100% viability (resistant to the drug): caspase 3/7 readout, 10,000 nM dose
Method: as §1, §2, §3, §4, §5
In this example, tissue culture wells containing a second endometrial cancer tumor organoid line were each exposed to one of the therapies listed above.

[6] = tested on: gastric cancer tumor organoid line; test: cells; conditions: for viability at 10 µM: Homo sapiens, read-out: mean viability for all organoids in the plot; for organoids of the line that are resistant to the drug / organoids with 0% viability (susceptible to the drug) / organoids with 100% viability (resistant to the drug): caspase 3/7 readout, 10,000 nM dose
Method: as §1, §2, §3, §4, §5
In this example, tissue culture wells containing a gastric cancer tumor organoid line were each exposed to one of the therapies listed above.

[7] = tested on: first endometrial cancer tumor organoid line; test: high throughput tumor organoid drug screen, per-organoid viability histogram
Method: as §1, §2, §3, §4, §5
In this example, tissue culture wells containing a first endometrial cancer tumor organoid line were each exposed to one of the therapies listed above.

[8] = tested on: colorectal cancer tumor organoid line; test: as above; format: cell-based, human; conditions: caspase 3/7 readout, 10,000 nM dose; for viability at 10 µM: Homo sapiens, read-out: mean viability for all organoids in the plot
Method: as §1, §2, §3, §4, §5
In this example, tissue culture wells containing a colorectal cancer tumor organoid line were each exposed to one of the therapies listed above.

[9] = caspase 3/7 readout, 10,000 nM dose

In the case of `Nc1ccn([C@@H]2O[C@H](CO)[C@@H](O)C2(F)F)c(=O)n1` [Gemcitabine], the viability at 10 µM [1] is reported as ~35%, the “organoids of the line that are resistant to the drug” value ([1]; caspase 3/7 readout) is reported as “presence of a small proportion” and the “organoids with 100% viability (resistant to the drug)” value (“organoids with 100% viability” below) ([1]; caspase 3/7 readout) is reported as “Approximately 15 organoids”. The viability at 10 µM [2] was ~35%, the “organoids of the line that are resistant to the drug” value [2, 9] was “presence of a small proportion” and the “organoids with 0% viability (susceptible to the drug)” value (from here on “organoids with 0% viability”) [2, 9] was “Approximately 30 organoids”. For the same molecule, the “organoids with 100% viability” value [2, 9] was “Approximately 10 organoids”.
With `O=c1[nH]cc(F)c(=O)[nH]1` [Fluorouracil] the viability at 10 µM [3] was ~25%, the “organoids of the line that are resistant to the drug” value [3] was “general absence” and the “organoids with 0% viability” value [3] was “Approximately 70 organoids”. The “organoids with 100% viability” value [3] was “Approximately 10 organoids”.
For `CC(=O)O[C@H]1C(=O)[C@@]2(C)[C@H]([C@H](OC(=O)c3ccccc3)[C@]3(O)C[C@H](OC(=O)[C@H](O)[C@@H](NC(=O)c4ccccc4)c4ccccc4)C(C)=C1C3(C)C)[C@]1(OC(C)=O)CO[C@@H]1C[C@@H]2O` [Paclitaxel], the viability at 10 µM [4] was ~40%, the “organoids of the line that are resistant to the drug” value [4] was “presence of a small proportion” and the “organoids with 0% viability” value [4] was “Approximately 65 organoids”. For the same molecule, the “organoids with 100% viability” value [4] was “Approximately 35 organoids”.
For `CCc1c2c(nc3ccc(O)cc13)-c1cc3c(c(=O)n1C2)COC(=O)[C@]3(O)CC` [SN-38], the “mean viability for all organoids in the plot” value (from here on “mean viability”) ([1]; caspase 3/7 readout) was “approximately 45%”, the “organoids of the line that are resistant to the drug” value ([1]; caspase 3/7 readout) was “presence of organoids” and the “organoids with 0% viability” value ([1]; caspase 3/7 readout) was “Approximately 20 organoids”. The “organoids with 100% viability” value ([1]; caspase 3/7 readout) was “Approximately 20 organoids”, the “mean viability” value [2, 9] was “approximately 20%” and the “organoids of the line that are resistant to the drug” value [2, 9] was “general absence”. For the same molecule, the “organoids with 0% viability” value [2, 9] was “Approximately 100 organoids” and the “organoids with 100% viability” value [2, 9] was “Approximately 5 organoids”.
`COc1cccc(OCCCN)c1-c1cc(Nc2cnc(C#N)cn2)n[nH]1` [Prexasertib, Prexasertib HCl] was tested, and the viability at 10 µM [5] was ~40%, the “organoids of the line that are resistant to the drug” value [5] was “presence of a small proportion” and the “organoids with 0% viability” value [5] was “Approximately 80 organoids”. The “organoids with 100% viability” value [5] was “Approximately 35 organoids”.
In the case of `CC(C)C[C@H](NC(=O)[C@H](Cc1ccccc1)NC(=O)c1cnccn1)B(O)O` [Bortezomib], the viability at 10 µM [6] is reported as ~15%, the “organoids of the line that are resistant to the drug” value [6] is reported as “general absence” and the “organoids with 0% viability” value [6] is reported as “Approximately 225 organoids”. For the same molecule, the “organoids with 100% viability” value [6] was “Approximately 15 organoids”.
In the case of `O=C1[O][Pt]2([NH][C@@H]3CCCC[C@H]3[NH]2)[O]C1=O` [Oxaliplatin], the “mean viability” value [7, 9] is reported as “approximately 40%”, the “organoids of the line that are resistant to the drug” value [7, 9] is reported as “presence of organoids” and the “organoids with 0% viability” value [7, 9] is reported as “Approximately 20 organoids”. For the same molecule, the “organoids with 100% viability” value [7, 9] was “Approximately 18 organoids”.
For `O=C(O)/C=C/c1ccc(-c2ccc(O)c(C34CC5CC(CC(C5)C3)C4)c2)cc1` [ST-1926, Adarotene], the viability at 10 µM ([7]; Homo sapiens, read-out: mean viability for all organoids in the plot) was ~30%, the “organoids of the line that are resistant to the drug” value [7, 9] was “general absence” and the “organoids with 0% viability” value [7, 9] was “Approximately 45 organoids”. The “organoids with 100% viability” value [7, 9] was “Approximately 10 organoids”, the viability at 10 µM [5] was ~40% and the “organoids of the line that are resistant to the drug” value [5] was “presence of a small proportion”. The “organoids with 0% viability” value [5] was “Approximately 65 organoids” and the “organoids with 100% viability” value [5] was “Approximately 40 organoids”.
`CCCCc1nc2cc(/C=C/C(=O)NO)ccc2n1CCN(CC)CC` [Pracinostat] was tested, and the viability at 10 µM [6] was ~20%, the “organoids of the line that are resistant to the drug” value [6] was “general absence” and the “organoids with 0% viability” value [6] was “Approximately 120 organoids”. The “organoids with 100% viability” value [6] was “Approximately 10 organoids”.
In the case of `N.N.[Cl][Pt][Cl]` [Cisplatin], the “organoids of the line that are resistant to the drug” value [7, 9] is reported as “general absence”, the “organoids with 0% viability” value [7, 9] is reported as “Approximately 60 organoids” and the “organoids with 100% viability” value [7, 9] is reported as “Approximately 5 organoids”.
With `CC(=O)O/N=C1/C(=C2/C(=O)Nc3cc(Br)ccc32)Nc2ccccc21` [BIO-acetoxime] the “organoids of the line that are resistant to the drug” value [6] was “general absence”, the “organoids with 0% viability” value [6] was “Approximately 150 organoids” and the “organoids with 100% viability” value [6] was “Approximately 20 organoids”.
For `CCS(=O)(=O)Nc1ccc2c(c1)/C(=C(/Nc1ccc(CN3CCCCC3)cc1)c1ccccc1)C(=O)N2` [Hesperadin], the viability at 10 µM [5] was ~20%, the “organoids with 0% viability” value [5] was “Approximately 100 organoids” and the “organoids with 100% viability” value [5] was “Approximately 5 organoids”.
For `C[C@@]1(CO)[C@H](O)CC[C@@]2(C)[C@H]1CC[C@H]1C[C@@H]3C[C@@]12CC[C@]3(O)CO` [Aphidicolin], the “organoids of the line that are resistant to the drug” value ([1]; caspase 3/7 readout) was “presence of organoids”, the viability at 10 µM [2] was ~30% and the “organoids of the line that are resistant to the drug” value [2, 9] was “presence of a small proportion”. The “organoids with 0% viability” value [2, 9] was “Approximately 50 organoids” and the “organoids with 100% viability” value [2, 9] was “Approximately 15 organoids”.
For `NC(=O)c1cccc2cn(-c3ccc([C@@H]4CCCNC4)cc3)nc12` [Niraparib], the viability at 10 µM [1] was ~25%, the “organoids of the line that are resistant to the drug” value ([1]; caspase 3/7 readout) was “presence of a small proportion” and the “organoids with 0% viability” value ([1]; caspase 3/7 readout) was “Approximately 80 organoids”. For the same molecule, the “organoids with 100% viability” value ([1]; caspase 3/7 readout) was “Approximately 20 organoids”.
For `CO[C@@H](C)Cn1c(=O)n(C)c2cnc3ccc(-c4cncc(C(C)(C)O)c4)cc3c21` [LY3023414], the viability at 10 µM [4] was ~15%, the “organoids of the line that are resistant to the drug” value [4] was “general absence” and the “organoids with 0% viability” value [4] was “Approximately 80 organoids”. The “organoids with 100% viability” value [4] was “Approximately 5 organoids”.
`CC(=O)Nc1cccc(-n2c(=O)n(C3CC3)c(=O)c3c(Nc4ccc(I)cc4F)n(C)c(=O)c(C)c32)c1` [Trametinib] was tested, and the viability at 10 µM [8] was ~25%, the “organoids with 0% viability” value [8] was “Approximately 50 organoids” and the “organoids with 100% viability” value [8] was “Approximately 10 organoids”.
In the case of `CC(=O)O[C@@]12CO[C@@H]1C[C@H](O)[C@@]1(C)C(=O)[C@H](O)C3=C(C)[C@@H](OC(=O)[C@H](O)[C@@H](NC(=O)OC(C)(C)C)c4ccccc4)C[C@@](O)([C@@H](OC(=O)c4ccccc4)[C@H]21)C3(C)C` [Docetaxel], the viability at 10 µM [2] is reported as ~30%, the “organoids of the line that are resistant to the drug” value [2, 9] is reported as “presence of a small proportion” and the “organoids with 0% viability” value [2, 9] is reported as “Approximately 50 organoids”. For the same molecule, the “organoids with 100% viability” value [2, 9] was “Approximately 20 organoids”, the viability at 10 µM [3] was ~20% and the “organoids of the line that are resistant to the drug” value [3] was “general absence”. The “organoids with 0% viability” value [3] was “Approximately 70 organoids”, the “organoids with 100% viability” value [3] was “Approximately 15 organoids” and the viability at 10 µM [8] was ~45%. For the same molecule, the “organoids of the line that are resistant to the drug” value [8] was “presence of organoids”, the “organoids with 0% viability” value [8] was “Approximately 35 organoids” and the “organoids with 100% viability” value [8] was “Approximately 30 organoids”.
